This test has as its target MhuD (Mycobacterium tuberculosis, UniProt P9WKH3). As to the kind of experiment: biochemical. In kind it is binding.

Where two headings read alike, the source gives them in different places.

By Kd is commonly meant the free concentration of one partner at which half of the binding sites on the other are occupied at equilibrium, for simple one-to-one binding.

MhuD, sequence (P9WKH3 whole entry): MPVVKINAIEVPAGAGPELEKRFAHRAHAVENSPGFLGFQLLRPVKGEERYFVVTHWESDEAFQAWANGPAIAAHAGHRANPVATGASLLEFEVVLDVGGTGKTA

With `C=CC1=C(C)/C(=C/c2[nH]c(/C=C3N=C(/C=C4\NC(=O)C(C)=C4C=C)C(C)=C\3CCC(=O)O)c(CCC(=O)O)c2C)NC1=O` [αBV, biliverdin IXα], for the setting “read-out: αBV Kd”, the Kd stood at 36.4 ± 2.1 nM.
For `C=CC1=C(C)C2=Cc3c(C=C)c(C)c4[n]3[Fe][n]3c(c(C)c(CCC(=O)O)c3=CC3=NC(=C4)C(C)=C3CCC(=O)O)=CC1=N2` [heme], binding was put at a Kd of 6 ± 2.9 nM.
